Patent US4493828A, “Use of thyrotropin releasing hormone and related peptides as poultry growth promotants” (Merck & Co., Inc., priority 1982, dated 1985)

Experiments:
[1] = tested on: 4-week-old Hubbard x Hubbard cockerels; assay: Example 1: effect of TRH on growth in 4-week-old male chicks (17 days); type: in vivo, chicken; settings: for body weight gain as compared with control (in words): P 0.01
Experimental: Four-week-old Hubbard x Hubbard cockerels were used in this experiment, and average initial weights were 841.75 g. Synthetic TRH (Beckman Co., Calif.) was dissolved in saline and given daily by intravenous injection via the brachial vein at 0.1 μg/bird, 1.0 μg/bird, and 10.0 μg/bird. Birds were weighed and feed consumption was measured at 2 times a week for 21/2 weeks. Data were analyzed by least squares analyses of variance, using initial weight as a covariant.

[2] = tested on: 4-week-old Hubbard×Hubbard cockerels; assay: Example 2: effect of TRH on growth in 4-week-old male chicks (25 days); type: in vivo, chicken
Experimental: Four-week-old Hubbard×Hubbard cockerels were used in this experiment, and average weight was 831.38 g. Synthetic TRH (Beckman Co., CA) was dissolved in saline and given daily by intravenous injection via the brachial vein at 0.1 μg/bird, 1.0 μg/bird, and 10 μg/ bird. Birds were weighed twice a week for 4 weeks. Data were analyzed by least squares of variance, using initial weight as a covariant.

[3] = 0.1 μg/bird daily intravenous, day 3 after start of treatment
[4] = 0.1 μg/bird daily intravenous, day 7 after start of treatment
[5] = 0.1 μg/bird daily intravenous, day 10 after start of treatment
[6] = 0.1 μg/bird daily intravenous, day 14 after start of treatment
[7] = 0.1 μg/bird daily intravenous, day 17 after start of treatment
[8] = 1.0 μg/bird daily intravenous, day 3 after start of treatment
[9] = 1.0 μg/bird daily intravenous, day 7 after start of treatment
[10] = 1.0 μg/bird daily intravenous, day 10 after start of treatment
[11] = 1.0 μg/bird daily intravenous, day 14 after start of treatment
[12] = 1.0 μg/bird daily intravenous, day 14 after start of treatment, P < 0.01
[13] = 1.0 μg/bird daily intravenous, day 17 after start of treatment, P < 0.01
[14] = 1.0 μg/bird/day, 14 and 17 days after the start of treatment
[15] = 10 μg/bird daily intravenous, day 3 after start of treatment
[16] = 10 μg/bird daily intravenous, day 7 after start of treatment
[17] = 10 μg/bird daily intravenous, day 10 after start of treatment
[18] = 10 μg/bird daily intravenous, day 14 after start of treatment
[19] = 10 μg/bird daily intravenous, day 14 after start of treatment, P < 0.01
[20] = 10 μg/bird daily intravenous, day 17 after start of treatment, P < 0.01
[21] = 10 μg/bird/day, 14 and 17 days after the start of treatment
[22] = 1.0 μg/bird/day, 22 (p 0.05) and 25 (p 0.025) days after the start of treatment
[23] = TRH (high) 10 μg/bird daily intravenous, day 4 after start of treatment
[24] = TRH (high) 10 μg/bird daily intravenous, day 8 after start of treatment

NC(=O)[C@@H]1CCCN1C(=O)[C@H](Cc1c[nH]cn1)NC(=O)[C@@H]1CCC(=O)N1 [TRH, Glp--His--Pro--NH2]
body weight gain [1, 3]: 171.7 ± 9.8 g
body weight gain, percent increased as compared with control [1, 3]: +0.6%
body weight, least squares mean ± SEM corrected by initial weight [1, 3]: 1009.3 ± 9.7 g
body weight, percent increased as compared with control [1, 3]: +0.1%
body weight gain [1, 4]: 393.1 ± 14.7 g
body weight gain, percent increased as compared with control [1, 4]: +5.0%
body weight, least squares mean ± SEM corrected by initial weight [1, 4]: 1230.6 ± 14.7 g
body weight, percent increased as compared with control [1, 4]: +1.5%
body weight gain [1, 5]: 569.4 ± 19.7 g
body weight gain, percent increased as compared with control [1, 5]: +5.5%
body weight, least squares mean ± SEM corrected by initial weight [1, 5]: 1406.9 ± 19.7 g
body weight, percent increased as compared with control [1, 5]: +2.2%
body weight gain [1, 6]: 824.3 ± 24.9 g
body weight gain, percent increased as compared with control [1, 6]: +8.9%
body weight, least squares mean ± SEM corrected by initial weight [1, 6]: 1662.1 ± 24.8 g
body weight, percent increased as compared with control [1, 6]: +4.0%
body weight gain [1, 7]: 999.5 ± 27.8 g
body weight gain, percent increased as compared with control [1, 7]: +7.5%
body weight, least squares mean ± SEM corrected by initial weight [1, 7]: 1837.1 ± 27.8 g
body weight, percent increased as compared with control [1, 7]: +3.9%
body weight compared with birds receiving saline injections (in words) ([1]; 0.1 μg/bird/day): slight increase in the body weight
body weight gain [1, 8]: 174.2 ± 9.7 g
body weight gain, percent increased as compared with control [1, 8]: +2.1%
body weight, least squares mean ± SEM corrected by initial weight [1, 8]: 1011.8 ± 9.7 g
body weight, percent increased as compared with control [1, 8]: +0.3%
body weight gain [1, 9]: 409.2 ± 14.6 g
body weight gain, percent increased as compared with control [1, 9]: +9.3%
body weight, least squares mean ± SEM corrected by initial weight [1, 9]: 1246.7 ± 14.6 g
body weight, percent increased as compared with control [1, 9]: +2.9%
body weight gain [1, 10]: 582.9 ± 19.6 g
body weight gain, percent increased as compared with control [1, 10]: +8.0%
body weight, least squares mean ± SEM corrected by initial weight [1, 10]: 1420.5 ± 19.6 g
body weight, percent increased as compared with control [1, 10]: +3.2%
body weight gain, percent increased as compared with control [1, 11]: +13.1%
body weight, percent increased as compared with control [1, 11]: +6.0%
body weight gain [1, 12]: 856.2 ± 24.8 g
body weight, least squares mean ± SEM corrected by initial weight [1, 12]: 1693.7 ± 24.6 g
body weight, percent increased as compared with control ([1]; 1.0 μg/bird daily intravenous, day 17 after start of treatment): +6.3%
body weight gain, percent increased as compared with control ([1]; 1.0 μg/bird daily intravenous, day 17 after start of treatment (end of experiment)): 12.0%
body weight gain [1, 13]: 1041.2 ± 27.6 g
body weight, least squares mean ± SEM corrected by initial weight [1, 13]: 1878.8 ± 27.6 g
body weight compared with birds receiving saline injections (in words) [1, 14]: increased body weight significantly
body weight gain as compared with control (in words) [1, 14]: significant increase
body weight gain [1, 15]: 181.6 ± 8.7 g
body weight gain, percent increased as compared with control [1, 15]: +6.4%
body weight, least squares mean ± SEM corrected by initial weight [1, 15]: 1019.2 ± 8.7 g
body weight, percent increased as compared with control [1, 15]: +1.1%
body weight gain [1, 16]: 399.3 ± 13.1 g
body weight gain, percent increased as compared with control [1, 16]: +6.7%
body weight, least squares mean ± SEM corrected by initial weight [1, 16]: 1236.9 ± 13.1 g
body weight, percent increased as compared with control [1, 16]: +2.1%
body weight gain [1, 17]: 584.0 ± 7.6 g
body weight gain, percent increased as compared with control [1, 17]: +8.2%
body weight, least squares mean ± SEM corrected by initial weight [1, 17]: 1421.6 ± 17.6 g
body weight, percent increased as compared with control [1, 17]: +3.2%
body weight gain, percent increased as compared with control [1, 18]: +12.7%
body weight, percent increased as compared with control [1, 18]: +5.8%
body weight gain [1, 19]: 853.3 ± 22.2 g
body weight, least squares mean ± SEM corrected by initial weight [1, 19]: 1690.8 ± 22.0 g
body weight, percent increased as compared with control ([1]; 10 μg/bird daily intravenous, day 17 after start of treatment): +6.5%
body weight gain [1, 20]: 1044.9 ± 24.7 g
body weight, least squares mean ± SEM corrected by initial weight [1, 20]: 1882.5 ± 24.7 g
body weight compared with birds receiving saline injections (in words) [1, 21]: increased body weight significantly
body weight gain as compared with control (in words) [1, 21]: significant increase
body weight compared with birds receiving saline injections (in words) ([2]; 0.1 μg/bird/day): slight increase in body weight
body weight compared with birds receiving saline injections (in words) [2, 22]: significant increase in body weight
body weight gain as compared with control birds (in words) [2, 22]: significant increase
body weight compared with birds receiving saline injections (in words) ([2]; 10 μg/bird/day): slight increase in body weight
body weight gain as compared with control birds (in words) ([2]; 10 μg/bird/day, throughout the whole experiment): slight increase in body weight gain
body weight gain [2, 23]: 156.3 ± 8.4 g
body weight gain, percent increase as compared with control [2, 23]: 4.6%
body weight, least squares mean ± standard error of the mean corrected by initial weight [2, 23]: 997.7 ± 8.3 g
body weight, percent increased as compared with control [2, 23]: 0.7%
body weight gain [2, 24]: 377.9 ± 15.1 g
body weight gain, percent increase as compared with control [2, 24]: 0%
body weight, least squares mean ± standard error of the mean corrected by initial weight [2, 24]: 1219.1 ± 15.0 g
